In US11214594B2, “Antimicrobial peptide having synergistic antibacterial effect with antibiotics on multidrug resistant bacteria, and use thereof” (priority 2016, dated 2022):
Read-outs that look alike come from different tables or passages of the source. Where a SMILES comes first, the peptide text is derived from it. [ ]: non-standard residue; d: D form.

Experiments:
MDRAB 12035 [1] = test: MIC of antibiotic during combined treatment with antimicrobial peptide; type: cell-based, Acinetobacter baumannii
How it was run: (§1)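 Strains in MH medium at 2×10^6 CFU/ml were mixed with peptide diluted stepwise (2:1) from its MIC, then antibiotic dilutions in MH medium were added to give the antibiotic MIC. The reversed set-up, peptide titrated against fixed antibiotic, gave the peptide MIC.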

E. coli = type: cell-based, Escherichia coli; conditions: E. coli
How it was run: as §1

MDREC 1229 = type: cell-based, Escherichia coli
How it was run: as §1

A. baumannii = test: MIC of antimicrobial peptide during combined treatment with antibiotic; type: cell-based, Acinetobacter baumannii
How it was run: as §1

MDRAB 12035 [2] = test: as above; type: cell-based, Acinetobacter baumannii
How it was run: as §1

[3] = peptide treatment concentration 2 μg/ml
[4] = peptide treatment concentration 4 μg/ml
[5] = peptide treatment concentration 6 μg/ml
[6] = peptide treatment concentration 8 μg/ml
[7] = peptide treatment concentration 16 μg/ml
[8] = peptide treatment concentration 32 μg/ml
[9] = peptide treatment concentration 64 μg/ml
[10] = linezolid 64 μg/ml (Conc./MIC 1/8)
[11] = linezolid 512 μg/ml (Conc./MIC 1)
[12] = vancomycin 512 μg/ml (Conc./MIC 1/2)
[13] = vancomycin 1024 μg/ml (Conc./MIC 1)
[14] = erythromycin 4 μg/ml (Conc./MIC 1/8)
[15] = erythromycin 8 μg/ml (Conc./MIC 1/4)
[16] = erythromycin 16 μg/ml (Conc./MIC 1/2)
[17] = erythromycin 32 μg/ml (Conc./MIC 1)

For `CC[C@H](C)[C@H](NC(=O)[C@H](CCCCN)NC(=O)[C@H](Cc1c[nH]c2ccccc12)NC(=O)[C@@H](N)CCCNC(=N)N)C(=O)N[C@@H](Cc1ccccc1)C(=O)N[C@@H](CCCCN)C(=O)N[C@@H](CCCCN)C(=O)N[C@H](C(=O)N[C@H](CCCCN)C(=O)N[C@@H](CCCCN)C(=O)N[C@@H](CC(C)C)C(=O)N[C@@H](CC(C)C)C(=O)N[C@@H](Cc1c[nH]cn1)C(=O)N[C@@H](CO)C(=O)N[C@@H](C)C(=O)N[C@@H](CCCCN)C(=O)N[C@@H](CCCCN)C(=O)N[C@@H](Cc1c[nH]c2ccccc12)C(N)=O)[C@@H](C)CC` [PapMA-16, RWK IFK KIk KLL HSA KKW-NH2] (H-RWKIFKKI[dK]KLLHSAKKW-NH2; N-terminus assumed), the “Linezolid MIC during combined treatment with peptide” value (MDRAB 12035 [1]; [3]) was greater than 128 mg/L, the “Vancomycin MIC during combined treatment with peptide” value (MDRAB 12035 [1]; [3]) was greater than 128 mg/L and the “Erythromycin MIC during combined treatment with peptide” value (MDRAB 12035 [1]; [4]) was 16 mg/L. The “Linezolid MIC during combined treatment with peptide” value (MDRAB 12035 [1]; [4]) was 128 mg/L, the “Vancomycin MIC during combined treatment with peptide” value (MDRAB 12035 [1]; [4]) was 64 mg/L and the “Erythromycin MIC during combined treatment with peptide” value (MDRAB 12035 [1]; [5]) was 4 mg/L. The “Linezolid MIC during combined treatment with peptide” value (MDRAB 12035 [1]; [5]) was 32 mg/L, the “Vancomycin MIC during combined treatment with peptide” value (MDRAB 12035 [1]; [5]) was 32 mg/L and the “Erythromycin MIC during combined treatment with peptide” value (MDRAB 12035 [1]; [6]) was 1 mg/L. The “Linezolid MIC during combined treatment with peptide” value (MDRAB 12035 [1]; [6]) was 16 mg/L, the “Vancomycin MIC during combined treatment with peptide” value (MDRAB 12035 [1]; [6]) was 16 mg/L and the “Erythromycin MIC during combined treatment with peptide” value (MDRAB 12035 [1]; [7]) was 0.25 mg/L. For the same compound, the “Linezolid MIC during combined treatment with peptide” value (MDRAB 12035 [1]; [7]) was 8 mg/L, the “Vancomycin MIC during combined treatment with peptide” value (MDRAB 12035 [1]; [7]) was 8 mg/L and the “Erythromycin MIC during combined treatment with peptide” value (MDRAB 12035 [1]; [8]) was 0 mg/L. The “Linezolid MIC during combined treatment with peptide” value (MDRAB 12035 [1]; [8]) was 0 mg/L, the “Vancomycin MIC during combined treatment with peptide” value (MDRAB 12035 [1]; [8]) was 0 mg/L and the “Erythromycin MIC during combined treatment with peptide” value (MDRAB 12035 [1]; [9]) was 0 mg/L. For the same compound, the “Linezolid MIC during combined treatment with peptide” value (MDRAB 12035 [1]; [9]) was 0 mg/L, the “Vancomycin MIC during combined treatment with peptide” value (MDRAB 12035 [1]; [9]) was 0 mg/L and the “Peptide MIC” value (E. coli; with Erythromycin […] (Conc./MIC 1)) was 0 mg/L. For the same compound, the “Peptide MIC” value (E. coli; with Linezolid […] (Conc./MIC 1)) was 0 mg/L, the “Peptide MIC” value (E. coli; with Vancomycin 1024 μg/ml (Conc./MIC 1)) was 0 mg/L and the “Peptide MIC during treatment with antibiotic” value (MDREC 1229; erythromycin 32 μg/ml (Conc./MIC 1/8)) was 4 mg/L. For the same compound, the “Peptide MIC during treatment with antibiotic” value (MDREC 1229; erythromycin 64 μg/ml (Conc./MIC 1/4)) was 2 mg/L, the “Peptide MIC during treatment with antibiotic” value (MDREC 1229; erythromycin […] (Conc./MIC 1)) was 0 mg/L and the “Peptide MIC during treatment with antibiotic” value (MDREC 1229; erythromycin […] (Conc./MIC 1/2)) was 2 mg/L. For the same compound, the “Peptide MIC during treatment with antibiotic” value (MDREC 1229; [10]) was 4 mg/L, the “Peptide MIC during treatment with antibiotic” value (MDREC 1229; [11]) was 0 mg/L and the “Peptide MIC during treatment with antibiotic” value (MDREC 1229; linezolid […] (Conc./MIC 1/2)) was 1 mg/L. For the same compound, the “Peptide MIC during treatment with antibiotic” value (MDREC 1229; linezolid […] (Conc./MIC 1/4)) was 2 mg/L, the “Peptide MIC during treatment with antibiotic” value (MDREC 1229; [12]) was 2 mg/L and the “Peptide MIC during treatment with antibiotic” value (MDREC 1229; [13]) was 1 mg/L. For the same compound, the “Peptide MIC during treatment with antibiotic” value (MDREC 1229; vancomycin […] (Conc./MIC 1/4)) was 4 mg/L, the “Peptide MIC during treatment with antibiotic” value (MDREC 1229; vancomycin […] (Conc./MIC 1/8)) was 8 mg/L and the “Peptide MIC during treatment with antibiotic” value (A. baumannii; [14]) was 4 mg/L. The “Peptide MIC during treatment with antibiotic” value (A. baumannii; [15]) was 4 mg/L, the “Peptide MIC during treatment with antibiotic” value (A. baumannii; [16]) was 2 mg/L and the “Peptide MIC during treatment with antibiotic” value (A. baumannii; [17]) was 0 mg/L. The “Peptide MIC during treatment with antibiotic” value (A. baumannii; linezolid 32 μg/ml (Conc./MIC 1/8)) was 8 mg/L, the “Peptide MIC during treatment with antibiotic” value (A. baumannii; linezolid 64 μg/ml (Conc./MIC 1/4)) was 8 mg/L and the “Peptide MIC during treatment with antibiotic” value (A. baumannii; linezolid […] (Conc./MIC 1)) was 0 mg/L. The “Peptide MIC during treatment with antibiotic” value (A. baumannii; linezolid […] (Conc./MIC 1/2)) was 4 mg/L, the “Peptide MIC during treatment with antibiotic” value (A. baumannii; [12]) was 0.25 mg/L and the “Peptide MIC during treatment with antibiotic” value (A. baumannii; [13]) was 0 mg/L. For the same compound, the “Peptide MIC during treatment with antibiotic” value (A. baumannii; vancomycin […] (Conc./MIC 1/4)) was 0.5 mg/L, the “Peptide MIC during treatment with antibiotic” value (A. baumannii; vancomycin […] (Conc./MIC 1/8)) was 2 mg/L and the “Peptide MIC during treatment with erythromycin” value (MDRAB 12035 [2]; [14]) was 4 mg/L. For the same compound, the “Peptide MIC during treatment with erythromycin” value (MDRAB 12035 [2]; [15]) was 4 mg/L, the “Peptide MIC during treatment with erythromycin” value (MDRAB 12035 [2]; [16]) was 4 mg/L and the “Peptide MIC during treatment with erythromycin” value (MDRAB 12035 [2]; [17]) was 0 mg/L. The “Peptide MIC during treatment with linezolid” value (MDRAB 12035 [2]; [10]) was 4 mg/L, the “Peptide MIC during treatment with linezolid” value (MDRAB 12035 [2]; [11]) was 0 mg/L and the “Peptide MIC during treatment with linezolid” value (MDRAB 12035 [2]; linezolid […] (Conc./MIC 1/2)) was 1 mg/L. The “Peptide MIC during treatment with linezolid” value (MDRAB 12035 [2]; linezolid […] (Conc./MIC 1/4)) was 4 mg/L, the “Peptide MIC during treatment with vancomycin” value (MDRAB 12035 [2]; [12]) was 2 mg/L and the “Peptide MIC during treatment with vancomycin” value (MDRAB 12035 [2]; [13]) was 1 mg/L. For the same compound, the “Peptide MIC during treatment with vancomycin” value (MDRAB 12035 [2]; vancomycin […] (Conc./MIC 1/4)) was 4 mg/L and the “Peptide MIC during treatment with vancomycin” value (MDRAB 12035 [2]; vancomycin […] (Conc./MIC 1/8)) was 8 mg/L.
